Measured values published in patent publication US11753408B2, “Compounds and method for blocking transmission of malarial parasite” (The United States of America, as represented by the …, priority 2016, dated 2023).

Legend:
[1] = system: Asexual parasites of P. falciparum strain 3D7; assay: In vitro drug activity on asexual parasites (SYBR Green assay); assay type: cell-based, Plasmodium falciparum
Method in brief: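 SYBR Green I fluorescence (ex 490, em 520 nm) was read after freeze-thaw lysis and 30 min staining at room temperature. Before that, drug-treated cultures (0.5% parasitemia, 2% hematocrit, DMSO ≤0.5%) were incubated 72 h, in duplicate.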

mTOR = mTOR (Homo sapiens, UniProt P42345); assay: mTOR activity (no method described); assay type: biochemical
[2] = Microsomal stability (rat); assay type: in vitro ADME; conditions: rat microsomes
Solubility at pH 7.4 = assay type: physicochemical
PAMPA permeability = assay type: in vitro ADME

SMILES	EC50 [1] [µM]	mTOR (mTOR) [nM]	Microsomal Stability (rat) T1/2 [2] [min]	Sol @ pH 7.4 (Solubility at pH 7.4) [ug/mL]	PAMPA Permeability (PAMPA permeability) [nm/s]
O=C(NC1CC1)c1ccc(-n2c(=O)ccc3cnc4ccc(-c5ccc(F)c(O)c5)cc4c32)cc1 [Compound 203]	0.0172	512.8	29.3	1.2	7500
O=C(NC1CC1)c1ccc(-n2c(=O)ccc3cnc4ccc(-c5ccc(Cl)c(O)c5)cc4c32)cc1 [Compound 204]	0.0143	257.1	>30	<1	< 10
O=C(NCCCN1CCCC1)c1ccc(-n2c(=O)ccc3cnc4ccc(-c5ccc(Cl)cc5)cc4c32)cc1 [Compound 206]	0.0489	19640	7.1	44.1	4280
CC(N)c1ccc(-c2ccc3ncc4ccc(=O)n(-c5ccc(C(=O)N6CCOCC6)cc5)c4c3c2)cc1 (centres unmarked) [Compound 207]	0.145	168.8	>30	58.1	< 10
CN(C)C(=O)c1ccc(-n2c(=O)ccc3c[n+]([O-])c4ccc(-c5ccc(Cl)cc5)cc4c32)cc1 [Compound 208]	0.0659	21750	13.2	35.5	2480
CCCCNC(=O)c1ccc(-n2c(=O)ccc3cnc4ccc(-c5ccc(Cl)cc5)cc4c32)cc1 [Compound 209]	0.538	2492	4	<1	< 10
O=C(c1ccc(-n2c(=O)ccc3cnc4ccc(-c5cccc(CCN6CCCC6)c5)cc4c32)cc1)N1CCOCC1 [Compound 211]	3.88	43090	>30	>83	2270
CN(C)CCc1cccc(-c2ccc3ncc4ccc(=O)n(-c5ccc(C(=O)N6CCOCC6)cc5)c4c3c2)c1 [Compound 212]	3.89	15800	>30	>79	1890
CC(C)NC(=O)c1ccc(-n2c(=O)ccc3cnc4ccc(-c5ccc(Cl)cc5)cc4c32)cc1 [Compound 213]	0.13	1299	18.9	<1	< 10
O=C(NCCCO)c1ccc(-n2c(=O)ccc3cnc4ccc(-c5ccc(Cl)cc5)cc4c32)cc1 [Compound 214]	0.0188	339.4	21.2	<1	3330
O=C(NCCN1CCOCC1)c1ccc(-n2c(=O)ccc3cnc4ccc(-c5ccc(Cl)cc5)cc4c32)cc1 [Compound 215]	0.177	763.8	6.3	<1	4920

More lines, now with the values ahead:

EC50 [1] [µM]	mTOR (mTOR) [nM]	Microsomal Stability (rat) T1/2 [2] [min]	Sol @ pH 7.4 (Solubility at pH 7.4) [ug/mL]	PAMPA Permeability (PAMPA permeability) [nm/s]	SMILES
0.0422	832.1	6.7	<1	11	CCNC(=O)c1ccc(-n2c(=O)ccc3cnc4ccc(-c5ccc(Cl)cc5)cc4c32)cc1 [Compound 216]
0.531	17830	>30	>83	1300	O=C(c1ccc(-n2c(=O)ccc3cnc4ccc(-c5ccc(CCN6CCCC6)cc5)cc4c32)cc1)N1CCOCC1 [Compound 217]
1.68	16250	>30	>69	1000	CN(C)CC#Cc1ccc2ncc3ccc(=O)n(-c4ccc(C(=O)N5CCOCC5)cc4)c3c2c1 [Compound 218]
0.371	3288	>30	6.3	33	O=C(c1ccc(-n2c(=O)ccc3cnc4ccc(-c5ccc(OC6CCNCC6)cc5)cc4c32)cc1)N1CCOCC1 [Compound 219]
0.156	4247	12.6	9.4	1270	O=C(NCCN1CCCC1)c1ccc(-n2c(=O)ccc3cnc4ccc(-c5ccc(Cl)cc5)cc4c32)cc1 [Compound 220]
0.0455	1504	22.2	<1	1330	COc1cc(-c2ccc3ncc4ccc(=O)n(-c5ccc(C(=O)NC6CC6)cc5)c4c3c2)ccc1Cl [Compound 221]
0.0228	820.6	27.2	7.1	7580	Cc1cc(C(=O)NC2CC2)ccc1-n1c(=O)ccc2cnc3ccc(-c4ccc(F)c(O)c4)cc3c21 [Compound 222]
0.0198	916.9	23.3	<1	7350	Cc1cc(C(=O)NC2CC2)ccc1-n1c(=O)ccc2cnc3ccc(-c4ccc(Cl)c(O)c4)cc3c21 [Compound 225]
0.0227	850.5	18	<1	3640	O=C(NC1COC1)c1ccc(-n2c(=O)ccc3cnc4ccc(-c5ccc(Cl)cc5)cc4c32)cc1 [Compound 231]
0.0534	1065	>30	9.2	76	O=C(NC1CNC1)c1ccc(-n2c(=O)ccc3cnc4ccc(-c5ccc(Cl)cc5)cc4c32)cc1 [Compound 232]
0.162	6306	>30	>76	1550	O=C(NC1CC1)c1ccc(-n2c(=O)ccc3cnc4ccc(-c5ccc(CN6CCCC6)cc5)cc4c32)cc1 [Compound 233]
2.22	18920	1.4	<1	8740	Cc1nc2ccc(-c3ccc(Cl)cc3)cc2c2c1ccc(=O)n2-c1ccc(C(=O)N2CCOCC2)cc1 [Compound 234]
24.4	100000	3.4	<1	5640	O=C(c1ccc(-n2c(=O)ccc3c(F)nc4ccc(-c5ccc(Cl)cc5)cc4c32)cc1)N1CCOCC1 [Compound 235]
1.2	50000	>30	>78	< 10	O=C(c1ccc(-n2c(=O)ccc3c[n+]([O-])c4ccc(-c5ccc(Cl)cc5)cc4c32)cc1)N(CCO)CCO [Compound 236]
39.5	100000	>30	>65	33	O=C(O)c1ccc(-n2c(=O)ccc3c(O)nc4ccc(-c5ccc(Cl)cc5)cc4c32)cc1 [Compound 237]
0.0568	214.8	>30	<1	4390	Nc1cc(-c2ccc3ncc4ccc(=O)n(-c5ccc(C(=O)NC6CC6)cc5)c4c3c2)ccc1Cl [Compound 238]
0.0175	242.2	>30	<1	799	NC(=O)c1ccc(-n2c(=O)ccc3cnc4ccc(-c5ccc(Cl)cc5)cc4c32)cc1 [Compound 239]
